ChEMBL document CHEMBL1201862, “PubChem BioAssay data set” (2004)
The source made the active and inactive calls.

Assays:
[1] = molecular target: T1, Carboxy-terminal domain RNA polymerase II polypeptide A small phosphatase 1 (Homo sapiens, UniProt Q9GZU7); assay: inhibitors of CTDSP1, concentration-response testing, biochemical assay, absorbance-based, actives from ultra-high-throughput screening (AID 540297); type: functional
T1 sequence (Q9GZU7 whole entry): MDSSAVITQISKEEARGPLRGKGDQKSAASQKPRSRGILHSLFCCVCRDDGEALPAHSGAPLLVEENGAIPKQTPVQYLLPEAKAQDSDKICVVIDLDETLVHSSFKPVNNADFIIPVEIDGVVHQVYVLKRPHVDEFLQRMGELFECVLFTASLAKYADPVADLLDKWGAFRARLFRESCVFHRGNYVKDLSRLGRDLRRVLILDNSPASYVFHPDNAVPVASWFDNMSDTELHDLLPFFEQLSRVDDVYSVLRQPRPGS

[2] = molecular target: T2, Low molecular weight phosphotyrosine protein phosphatase (Homo sapiens, UniProt P24666); type: functional; conditions: read-out: IC50_Mean;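 further: Dose-response confirmation assay measuring inhibition of LMPTP enzyme activity by fluorescence intensity read-out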
T2 sequence (P24666 whole entry): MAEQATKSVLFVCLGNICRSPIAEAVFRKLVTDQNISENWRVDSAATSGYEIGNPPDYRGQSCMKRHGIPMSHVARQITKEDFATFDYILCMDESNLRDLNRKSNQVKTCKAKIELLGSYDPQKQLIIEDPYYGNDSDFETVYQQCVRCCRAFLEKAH

[3] = molecular target: Voltage-gated inwardly rectifying potassium channel KCNH2 (Homo sapiens, UniProt Q12809); assay: hERG protection from proarrhythmic block, potency, dose response, cell-based, thallium flux (AID 2121); type: ADME
Prothrombin = Prothrombin (Homo sapiens, UniProt P00734); assay: Thrombin 1536 HTS Dose Response Confirmation. [Related pubchem assays: 1046 (Thrombin 1536 HTS; hits were confirmed in this assay)]; type: functional
Protein Wnt-3a = Protein Wnt-3a (Mus musculus, UniProt P27467); assay: Wnt3a-driven reporter signaling inhibition, dose response, selectivity assay for Gli-SUFU antagonist project, Wnt-LIGHT cells, luminescence (AID 651570); type: functional; conditions: read-out: IC50_Mean;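 further: Wnt-LIGHT reporter cells stimulated with conditioned medium from Wnt3a-producing cells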
[4] = molecular target: T3, Corticotropin-releasing factor receptor 2/Corticotropin-releasing factor-binding protein (Homo sapiens, UniProt P24387+Q13324); assay: activators of CRF receptor 2 with binding protein – uHTS hits, confirmation (AID 602473); type: functional; conditions: read-out: EC50_Mean
T3 sequence (Q13324 whole entry): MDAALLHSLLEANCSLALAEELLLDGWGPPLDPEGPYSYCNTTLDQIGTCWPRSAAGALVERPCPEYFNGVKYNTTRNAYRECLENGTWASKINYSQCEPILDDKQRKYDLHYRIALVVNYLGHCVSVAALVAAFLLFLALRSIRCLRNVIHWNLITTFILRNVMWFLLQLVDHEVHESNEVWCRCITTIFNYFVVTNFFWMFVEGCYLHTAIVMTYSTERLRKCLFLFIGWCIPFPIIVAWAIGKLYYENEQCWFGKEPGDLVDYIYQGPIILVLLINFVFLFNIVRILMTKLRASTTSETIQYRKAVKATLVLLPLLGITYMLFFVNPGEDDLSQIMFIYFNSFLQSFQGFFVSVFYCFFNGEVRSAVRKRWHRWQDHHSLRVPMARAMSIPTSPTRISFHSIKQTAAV
T3 sequence (P24387 whole entry): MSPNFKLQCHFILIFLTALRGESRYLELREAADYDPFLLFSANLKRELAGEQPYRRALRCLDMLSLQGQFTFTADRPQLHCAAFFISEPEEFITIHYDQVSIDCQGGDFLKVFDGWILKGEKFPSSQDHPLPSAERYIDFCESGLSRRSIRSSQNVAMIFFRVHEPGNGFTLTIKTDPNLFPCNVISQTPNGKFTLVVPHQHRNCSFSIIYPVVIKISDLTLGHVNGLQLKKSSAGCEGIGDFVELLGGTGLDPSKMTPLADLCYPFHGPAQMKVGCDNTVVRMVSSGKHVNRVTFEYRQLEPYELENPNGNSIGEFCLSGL

[5] = CRF-BP/CRF-R2 complex antagonists, dose response, cell-based, uHTS hits, 384-well (AID 651639); type: functional, Homo sapiens; conditions: read-out: IC50_Mean
[6] = molecular target: T3, Corticotropin-releasing factor receptor 2/Corticotropin-releasing factor-binding protein; assay: Dose Response confirmation of uHTS hits for small molecule antagonists of the CRF-binding protein and CRF-R2 receptor complex.; type: functional; conditions: read-out: IC50_Mean
[7] = cytotoxicity in HEK-293T cells, dose response, cytotoxicity control for TCR NF-kB inhibitor project, luminescence, T-cell screen hits (AID 489026); type: functional, cell-based;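 further: cells exposed to compound about 14 hours before the viability readout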
Major prion protein = Major prion protein (Homo sapiens, UniProt P04156); type: functional, cell-based
[8] = molecular target: NAD-dependent protein deacylase sirtuin-5, mitochondrial (Homo sapiens, UniProt Q9NXA8); assay: SIRT5 desuccinylase inhibitors, dose response, biochemical, fluorescence imaging, cherry-pick, set 5 (AID 720591);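 further: desuccinylation of succinyl peptide AMC substrate read as fluorescence after trypsin release; potency of inhibitors that lower fluorescence and may act on trypsin instead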
[9] = molecular target: T4, Heat shock factor protein 1 (Mus musculus, UniProt P38532); assay: inhibition of MG132-induced HSE-luciferase signal, confirmation, cell-based, NIH3T3, luminescence, dose retest (AID 2382); type: functional;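 further: NIH3T3 fibroblasts with HSF1-driven luciferase reporter stressed by proteasome inhibitor MG132; luminescence from HSF1-driven luciferase expression after 8 hours of MG132 stress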
T4 sequence (P38532 whole entry): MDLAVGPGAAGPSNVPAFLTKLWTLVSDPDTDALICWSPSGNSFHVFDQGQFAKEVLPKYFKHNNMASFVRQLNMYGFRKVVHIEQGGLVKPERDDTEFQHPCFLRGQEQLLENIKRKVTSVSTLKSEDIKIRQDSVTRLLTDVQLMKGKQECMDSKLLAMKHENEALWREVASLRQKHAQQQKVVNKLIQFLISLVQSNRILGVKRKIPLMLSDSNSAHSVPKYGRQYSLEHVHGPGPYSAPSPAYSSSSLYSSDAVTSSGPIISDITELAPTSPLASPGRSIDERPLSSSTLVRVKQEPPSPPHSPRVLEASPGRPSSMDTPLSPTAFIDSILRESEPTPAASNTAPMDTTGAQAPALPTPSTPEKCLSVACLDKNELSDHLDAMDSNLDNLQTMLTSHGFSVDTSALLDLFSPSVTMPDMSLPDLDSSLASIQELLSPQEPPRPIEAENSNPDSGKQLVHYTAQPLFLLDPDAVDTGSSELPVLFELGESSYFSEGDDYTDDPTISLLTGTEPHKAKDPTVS

HEK293 = assay: cells; type: functional, cell-based; conditions: Homo sapiens
[10] = molecular target: T5, Nuclear receptor subfamily 0 group B member 1 (Homo sapiens, UniProt P51843); assay: Luminescence-based cell-based high throughput dose response assay for inhibitors of the orphan nuclear receptor subfamily 0, group B, member 1 (DAX1; NR0B1). [Related pubchem assays (depositor defined):AID504766, AID504790]; type: functional
T5 sequence (P51843 whole entry): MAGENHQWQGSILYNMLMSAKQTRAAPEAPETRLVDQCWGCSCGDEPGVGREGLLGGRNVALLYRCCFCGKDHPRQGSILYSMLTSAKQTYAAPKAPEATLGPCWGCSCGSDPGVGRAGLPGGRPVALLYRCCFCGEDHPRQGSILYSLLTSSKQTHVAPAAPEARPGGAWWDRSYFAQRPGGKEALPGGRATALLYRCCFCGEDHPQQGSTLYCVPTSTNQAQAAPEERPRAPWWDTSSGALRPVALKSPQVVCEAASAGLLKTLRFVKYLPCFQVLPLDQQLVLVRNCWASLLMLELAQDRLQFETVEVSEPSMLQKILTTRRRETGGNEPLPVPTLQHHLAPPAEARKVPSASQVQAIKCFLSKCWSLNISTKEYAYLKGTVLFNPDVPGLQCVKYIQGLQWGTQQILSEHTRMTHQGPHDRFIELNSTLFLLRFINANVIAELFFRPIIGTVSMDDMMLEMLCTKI

[11] = Luminescence-based cell-based high throughput dose response assay to identify activators of the DAF-12 from the parasite S. stercoralis (ssDAF-12).; type: functional
Paired box protein Pax-8 = Paired box protein Pax-8 (Homo sapiens, UniProt Q06710); assay: inhibitors of PAX8-driven TPO luciferase reporter, dose response, RMG-I cells, cherry-pick (AID 687027); type: functional, cell-based;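 further: luciferase reporter driven by Pax8 target thyroperoxidase promoter measured by SteadyGlo luminescence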
[12] = NIH:OVCAR-3 ovarian cancer cell cytotoxicity, dose response, PAX8 inhibitor project, plate reader, dry powder samples (AID 743044); type: functional, cell-based
[13] = cytotoxicity in OVCAR8 ovarian cancer cells, dose response, PAX8 project, cell-based, plate reader, dry powder samples (AID 743197); type: functional; conditions: OVCAR-8
[14] = A2780 ovarian cancer cell cytotoxicity, dose response, cytotoxicity control, plate reader, dry powder samples (AID 743046); type: functional, cell-based
[15] = HepG2 cell cytotoxicity, dose response, cytotoxicity control, plate reader, dry powder samples (AID 1159569); type: functional, cell-based;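 further: inhibitor potency with signal falling toward the positive control level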
[16] = P. falciparum Dd2 growth inhibitors, dose response, SYBR Green, dry powder samples (AID 1159566); type: functional, cell-based;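 further: potency for growth inhibition with lower SYBR green DNA signal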
[17] = P. falciparum Dd2 growth inhibitors, dose response, SYBR Green, cherry-picked samples (AID 1159567); type: functional, cell-based
[18] = P. falciparum ATP4 D1247Y mutant growth inhibitors, dose response, NITD609-resistant line, SYBR Green, dry powder (AID 1159571); type: functional, cell-based;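 further: parasites synchronized at ring stage by sorbitol before testing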
[19] = P. falciparum 3D7-ScDHODH growth inhibitors, dose response, SYBR Green, dry powder samples (AID 1159570); type: functional, cell-based;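 further: parasite growth measured after 72 hours of compound exposure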

## O=C(/C=C/c1cccc([N+](=O)[O-])c1)Nc1ccc(NC(=O)c2cccs2)cc1
[1]
  IC50: 4.11 µM (active)
[2]
  IC50: 27.3 µM (inactive)

## Cc1cccc(NC(=S)NC(=O)c2cc(-c3ccccc3)nc3ccccc23)c1
[3]
  EC50: 0.53 µM (active)

## O=C(NCc1ccccc1)C1=C[C@@H](c2coc3ccccc3c2=O)C[C@@H](OCCCCO)O1
Prothrombin
  IC50: > 50 µM (not active)

## CCCCOc1ccc(N2C(N)=NC(N)=NC23CCCCC3)cc1
Protein Wnt-3a
  IC50: 18.3 µM (active)

## CC(C)c1cc(C(F)(F)F)nc(NNc2nc(C(C)C)cc(C(F)(F)F)n2)n1
[4]
  EC50: > 53 µM (inactive)
[5]
  IC50: > 20 µM (inactive)
[6]
  IC50: 0.988 µM (active)

## NNC(=O)CN1C(=O)Nc2ccc(Br)cc2C1c1ccccc1 (stereo not given)
Prothrombin
  IC50: > 50 µM (not active)

## COc1cc(C(=O)Nc2ccc3c(c2)ncn3C)cc(OC)c1OC
[7]
  IC50: > 80 µM (inactive)
cells
  IC50: > 138 µM (inactive)
Major prion protein
  IC50: 6.23 µM (active)

## O=C1N2CCSC2=NC1(NS(=O)(=O)c1ccccc1)C(F)(F)F (stereo not given)
[3]
  EC50: 2.27 µM (active)

## CCOC(=O)N1CCN(C(=O)C2CCCN(S(=O)(=O)c3cc(C)ccc3OC)C2)CC1 (stereo not given)
Prothrombin
  IC50: > 50 µM (not active)

## Cc1cc(C2C(=O)c3ccccc3C2=O)c(C)c(C)c1C
[8]
  AC50: > 30 µM (inactive)

## CC1(C)Cc2c(sc3nc(C4CC4)n(N)c(=O)c23)CO1
[9]
  EC50: > 195 µM (not active)
HEK293
  IC50: > 67.6 µM (inactive)
[10]
  IC50: > 67.6 µM (inactive)

## CCN1C(=O)C2(C(C(=O)c3cc4ccccc4o3)=C(O)C(=O)N2CCCN2CCOCC2)c2ccccc21 (stereo not given)
cells
  IC50: > 138 µM (inactive)
Major prion protein
  IC50: 2.08 µM (active)

## CCc1c(C)nc2c(Br)cccc2c1SCCC#N
[8]
  AC50: > 30 µM (inactive)
cells
  IC50: > 138 µM (inactive)
Major prion protein
  IC50: 2.52 µM (active)

## NC(=O)c1cccnc1Nc1cccc([N+](=O)[O-])c1
[3]
  EC50: 2.98 µM (active)

## CC(C)Sc1snnc1-c1ccccc1
[4]
  EC50: > 53 µM (inactive)
[5]
  IC50: > 20 µM (inactive)
[6]
  IC50: < 0.368 µM (active)

## COc1ccc(C(=O)C2CCCN(Cc3c[nH]nc3-c3ccccc3)C2)cc1OC (stereo not given)
[8]
  AC50: > 30 µM (inactive)

## CN(C(=S)NC(=O)c1ccc(F)cc1)C1CCCCC1
[3]
  EC50: 8.79 µM (active)

## Cc1cc(NC(=O)CSc2nc(O)c(C#N)c(-c3ccccc3)n2)no1
cells
  IC50: > 138 µM (inactive)
Major prion protein
  IC50: 7.14 µM (active)

## COc1ccc(NC(=O)c2c(F)cccc2F)cc1S(=O)(=O)Nc1ccc(Br)cc1
[4]
  EC50: > 53 µM (inactive)
[5]
  IC50: 18.9 µM (active)
[6]
  IC50: 20 µM (active)

## CCc1nnc(NC(=O)CCC(=O)N2CCCC2)s1
Prothrombin
  IC50: > 50 µM (not active)

## COC(=O)C1=C(c2cc3ccccc3o2)C[C@@H]2CC[C@H]1N2C(=O)N1CCC(C)CC1
Protein Wnt-3a
  IC50: 24.4 µM (inactive)

## CCOC(=O)c1c(C)[nH]c(C)c1C(=O)COC(=O)c1ccccc1O
[8]
  AC50: 20 µM (active)

## Cc1cc2oc(C(=O)NCC(c3ccco3)N3CCCC3)c(C)c2cc1C (stereo not given)
[11]
  IC50: > 67.6 µM (inactive)

## C[C@@H]1CN([C@@H](C)CO)C(=O)Cc2cc(NC(=O)NC3CCCCC3)ccc2O[C@H]1CN(C)Cc1ccc(-c2ccccc2)cc1
Paired box protein Pax-8
  AC50: 8.66 µM (active)
[12]
  AC50: 49.5 µM (active)
[13]
  AC50: 34 µM (active)
[14]
  AC50: 31.8 µM (active)

## COc1ccc(NC(=O)Nc2ccc3c(c2)C(=O)N([C@H](C)CO)C[C@@H](C)[C@@H](CN(C)C(=O)Cc2ccccc2)OCCCC[C@H](C)O3)cc1
Paired box protein Pax-8
  AC50: 30.9 µM (active)
[13]
  AC50: > 70 µM (inactive)
[14]
  AC50: 16.6 µM (active)

## COc1ccc(NC(=O)N2CCCCN3[C@H](CO)[C@H](c4ccc(C#CCC(C)C)cc4)[C@@H]3C2)cc1
[15]
  AC50: > 100 µM (inactive)
[16]
  AC50: 0.418 µM (active)
[17]
  AC50: 0.636 µM (active)
[18]
  AC50: 0.264 µM (active)
[19]
  AC50: 0.209 µM (active)

## C[C@@H]1CN([C@H](C)CO)C(=O)c2ccccc2-c2ccccc2CO[C@H]1CN(C)C(=O)Nc1cccc(Cl)c1Cl
[15]
  AC50: > 100 µM (inactive)
[16]
  AC50: 0.56 µM (active)
[17]
  AC50: 1.01 µM (active)
[18]
  AC50: 1.65 µM (active)
[19]
  AC50: 0.466 µM (active)
